The target of one test is T1, AA amyloid (Mus musculus, UniProt P05367).
T1 construct: from tissue; host or cells: organs of living H2-L^d-huIL-6 Tg Balb/c mice after AEF injection
T1 sequence (P05367 20-94 limits assumed): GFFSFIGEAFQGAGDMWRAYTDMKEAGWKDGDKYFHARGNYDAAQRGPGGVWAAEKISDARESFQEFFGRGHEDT
The test is described as follows: In vivo pre-targeting of ^125I-11-1F4 to systemic AA amyloid. More on the design: species or system mice. The procedure: Systemic visceral AA amyloidosis was induced in H2-L^d-huIL-6 Tg Balb/c transgenic mice that constitutively express the human interleukin-6 transgene, by iv injection of 10 μg of purified, splenic AA amyloid (amyloid enhancing factor; AEF) in 100 μL of sterile phosphate-buffered saline (PBS). Peptide p66 pre-targeting of ^125I-11-1F4 was evaluated in mice at 3-4 wk post AEF injection when amyloid load was modest.
Three cohorts of 3 mice, each received ˜400 μg of unlabeled peptide p66, and a second group of 3 cohorts were given peptide p5+14 as a control. Twenty-four hours after the peptide injection all mice were administered ˜150 μCi (˜20 μg) of ^125I-11-1F4 IV in the lateral tail vein. One group of p66 mice (n=3) and one group of p5+14 control mice (n=3) were euthanized at 24, 48 and 72 h post injection of 11-1F4 mAb and the organs harvested at necropsy for fixation, followed by microautoradiographic and immunohistochemical analyses.
For autoradiography, 6-μm-thick sections were cut from formalin-fixed, paraffin-embedded blocks, containing tissues from mice that had received […]. The sections were placed on Plus microscope slides (Fisher Scientific), dipped in NTB-2 emulsion (Eastman Kodak), stored in the dark, and developed after a 4 day exposure. Each section was counterstained with hematoxylin and eosin.
Formalin-fixed paraffin embedded tissue sections, from mice treated with p66 peptope or peptide p5+14 were subjected to antigen retrieval using citrate buffer (pH 6; Dako) 30 min at 90° C. The tissue was then blocked with hydrogen peroxide, casein, and avidin and biotin, per manufacturer's instructions. The biotinylated peptide-reactive mAb (clone 12-3 [described above]) was then added (1.6 μg/mL in PBS) an the samples incubated for 2 h at RT, O/N at 4° C., followed by another 2 h period at RT. […]
The presence of macrophages was detected by staining with mAb Iba-1 (1:8000 diln) followed by addition of biotinylated rabbit anti-mouse secondary reagent (Vector Rabbit Elite kit). […]

A further test deals with human Den ALλ amyloid. The test is described as follows: Immunohistochemistry of biotinyl-7D8 on formalin-fixed tissue sections. The settings on record: thyroid, label = pre-treatment peptide, or 7D8 alone. In kind it is binding. As to the method:
(§1) The binding of biotinylated 7D8 mAb with autopsy-derived, formalin-fixed, paraffin-embedded tissue sections containing, ATTR, ALκ or ALλ was assessed immunohistochemically. Consecutive tissue sections were stained with: Congo red; biotinylated 7D8 alone; 7D8 with the control peptide p5; or, 7D8 mAb with peptope p75 pretreatment. Briefly, six μm-thick tissue sections were subjected to antigen retrieval by incubation in CitraPlus solution (BioGenex, San Ramon, Calif.) for 30 min at 90° C. Unlabeled peptope p75 was added to the tissue at ˜3 μg/mL and incubated overnight at 4° C. Unbound reagent was removed by washing in PBST for 30 min. Tissues sections (with or without peptope pretreatment) were immunostained by addition of 3 μg/mL biotinylated 7D8 mAb. Slides were developed by addition of streptavidin-HRP (Vectastain Elite ABC kit, Vector Labs) followed by 3,3′-diaminobezidene (Vector Labs) and examined using a Leica DM500 microscope.

A further test deals with human ATTR amyloid. The description is as above. In kind it is binding. The settings on record: label = pre-treatment peptide, or 7D8 alone. As to the method:
as §1

The test system of another test is human Tal ALκ amyloid. The test is described as above. The class given is binding. Particulars: kidney, label = pre-treatment peptide, or 7D8 alone. As to the method:
as §1

For the substance “KAQKAQAKQAKQAQKAQKAQAKQAKQAQKAQKAQAKQAKQ SVTVVT KHYAAFPENLLI [p66]”, the “co-localization of ^125I-11-1F4 with AA amyloid after peptide pre-targeting” value on AA amyloid (24 h post injection of 11-1F4 mAb, peptide given 24 h before mAb) is given as “exclusively co-localized with the p66-coated AA amyloid”. On AA amyloid (72 h post injection of 11-1F4 mAb, peptide pre-injected, preliminary data), the “liver macrophage infiltration (Iba-1 staining)” value is “induced macrophage infiltration into the liver and clustering of macrophages around amyloid deposits to a greater degree”.

Consider “KAQKAQAKQAKQAQKAQKAQAKQAKQAQHEDT [p75, KAQKAQAKQAKQAQKAQKAQAKQAKQAQHEDT]”, for which the “immunohistochemical staining with biotinyl-7D8” value with human Den ALλ amyloid is “Specific positive staining”; in the test with human ATTR amyloid (Gre ATTR, esophagus) it was “Specific positive staining”; in the test with human ATTR amyloid (Gre ATTR, heart), “Specific positive staining”; with human ATTR amyloid (Gre ATTR, nerve) it was “Specific positive staining”; with human ATTR amyloid (Gre ATTR, small bowel), “Specific positive staining”; in the test with human ATTR amyloid (Ken ATTR, heart), “Specific positive staining”. The “immunohistochemical staining with biotinyl-7D8” value with human ATTR amyloid (Sno ATTR, heart) is listed as “Specific positive staining”; with human Tal ALκ amyloid, “Specific positive staining”.

(Values after patent publication US10046050B2, “Targeting immunotherapy for amyloidosis” (UNIVERSITY OF TENNESSEE RESEARCH FOUNDATION, priority 2014, dated 2018).)
